Source: PubChem BioAssay (NCI)
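Cells were grown in 96-well plates and exposed to each compound for 48 hours at five concentrations; endpoints were interpolated linearly between bracketing concentrations, or set to the highest concentration if not reached. TGI: total growth inhibition.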

How the values were obtained:
Assay in all cases: DTP human tumour cell line panel, 48 h
MCF7 breast = system: MCF7 breast
EKVX NSCLC = system: EKVX NSCLC
SK-MEL-2 melanoma = system: SK-MEL-2 melanoma
SF-268 CNS = system: SF-268 CNS
OVCAR-8 ovarian = system: OVCAR-8 ovarian
HCT-15 colon = system: HCT-15 colon
K-562 leukemia = system: K-562 leukemia
SF-295 CNS = system: SF-295 CNS
U251 CNS = system: U251 CNS
HOP-62 NSCLC = system: HOP-62 NSCLC
HOP-92 NSCLC = system: HOP-92 NSCLC
RXF 393 renal = system: RXF 393 renal
SN12C renal = system: SN12C renal
MOLT-4 leukemia = system: MOLT-4 leukemia
SNB-75 CNS = system: SNB-75 CNS
UO-31 renal = system: UO-31 renal
T-47D breast = system: T-47D breast
NCI/ADR-RES ovarian = system: NCI/ADR-RES ovarian
M14 melanoma = system: M14 melanoma
NCI-H226 lung = system: NCI-H226 lung
LOX IMVI melanoma = system: LOX IMVI melanoma
KM12 colon = system: KM12 colon
TK-10 renal = system: TK-10 renal
UACC-62 melanoma = system: UACC-62 melanoma
SF-539 CNS = system: SF-539 CNS
SK-MEL-5 melanoma = system: SK-MEL-5 melanoma
HCT-116 colon = system: HCT-116 colon
PC-3 prostate = system: PC-3 prostate
HL-60(TB) leukemia = system: HL-60(TB) leukemia
MDA-N = system: MDA-N
SR leukemia = system: SR leukemia
MALME-3M melanoma = system: MALME-3M melanoma
OVCAR-5 ovarian = system: OVCAR-5 ovarian
786-0 renal = system: 786-0 renal
SK-OV-3 ovarian = system: SK-OV-3 ovarian
RPMI-8226 leukemia = system: RPMI-8226 leukemia
UACC-257 melanoma = system: UACC-257 melanoma
A549 NSCLC = system: A549 NSCLC
MDA-MB-435 = system: MDA-MB-435
OVCAR-4 ovarian = system: OVCAR-4 ovarian
SW-620 colon = system: SW-620 colon
COLO 205 colon = system: COLO 205 colon
OVCAR-3 ovarian = system: OVCAR-3 ovarian
NCI-H460 lung = system: NCI-H460 lung
MDA-MB-231 breast = system: MDA-MB-231 breast
DU-145 prostate = system: DU-145 prostate
CAKI-1 renal = system: CAKI-1 renal
SNB-19 CNS = system: SNB-19 CNS
BT-549 breast = system: BT-549 breast
NCI-H522 lung = system: NCI-H522 lung
HS 578T breast = system: HS 578T breast
NCI-H23 lung = system: NCI-H23 lung
A498 renal = system: A498 renal
ACHN renal = system: ACHN renal
IGROV1 ovarian = system: IGROV1 ovarian
SK-MEL-28 melanoma = system: SK-MEL-28 melanoma
HT29 colon = system: HT29 colon
CCRF-CEM leukemia = system: CCRF-CEM leukemia

Compound `CC(C)NC1(C(N)=O)CCN(Cc2ccccc2)CC1` has a TGI (MCF7 breast) greater than 100 µM, a TGI (EKVX NSCLC) greater than 100 µM and a TGI (SK-MEL-2 melanoma) greater than 100 µM. The TGI (SF-268 CNS) was greater than 100 µM, the TGI (OVCAR-8 ovarian) was greater than 100 µM and the TGI (HCT-15 colon) was greater than 100 µM. It also gave a TGI (K-562 leukemia) greater than 100 µM, a TGI (SF-295 CNS) greater than 100 µM and a TGI (U251 CNS) greater than 100 µM. It also gave a TGI (HOP-62 NSCLC) greater than 100 µM, a TGI (HOP-92 NSCLC) greater than 100 µM and a TGI (RXF 393 renal) greater than 100 µM. The TGI (SN12C renal) was greater than 100 µM, the TGI (MOLT-4 leukemia) was greater than 100 µM and the TGI (SNB-75 CNS) was greater than 100 µM. It also gave a TGI (UO-31 renal) greater than 100 µM, a TGI (T-47D breast) greater than 100 µM and a TGI (NCI/ADR-RES ovarian) greater than 100 µM. The TGI (M14 melanoma) was greater than 100 µM, the TGI (NCI-H226 lung) was greater than 100 µM and the TGI (LOX IMVI melanoma) was greater than 100 µM. The TGI (KM12 colon) was greater than 100 µM, the TGI (TK-10 renal) was greater than 100 µM and the TGI (UACC-62 melanoma) was greater than 100 µM. It also gave a TGI (SF-539 CNS) greater than 100 µM, a TGI (SK-MEL-5 melanoma) greater than 100 µM and a TGI (HCT-116 colon) greater than 100 µM. For the same compound, the TGI (PC-3 prostate) was greater than 100 µM, the TGI (HL-60(TB) leukemia) was greater than 100 µM and the TGI (MDA-N) was greater than 100 µM. For the same compound, the TGI (SR leukemia) was greater than 100 µM, the TGI (MALME-3M melanoma) was greater than 100 µM and the TGI (OVCAR-5 ovarian) was greater than 100 µM. The TGI (786-0 renal) was greater than 100 µM, the TGI (SK-OV-3 ovarian) was greater than 100 µM and the TGI (RPMI-8226 leukemia) was greater than 100 µM. The TGI (UACC-257 melanoma) was greater than 100 µM, the TGI (A549 NSCLC) was greater than 100 µM and the TGI (MDA-MB-435) was greater than 100 µM. For the same compound, the TGI (OVCAR-4 ovarian) was greater than 100 µM, the TGI (SW-620 colon) was greater than 100 µM and the TGI (COLO 205 colon) was greater than 100 µM. It also gave a TGI (OVCAR-3 ovarian) greater than 100 µM, a TGI (NCI-H460 lung) greater than 100 µM and a TGI (MDA-MB-231 breast) greater than 100 µM. It also gave a TGI (DU-145 prostate) greater than 100 µM, a TGI (CAKI-1 renal) greater than 100 µM and a TGI (SNB-19 CNS) greater than 100 µM. The TGI (BT-549 breast) was greater than 100 µM, the TGI (NCI-H522 lung) was greater than 100 µM and the TGI (HS 578T breast) was greater than 100 µM. For the same compound, the TGI (NCI-H23 lung) was greater than 100 µM, the TGI (A498 renal) was greater than 100 µM and the TGI (ACHN renal) was greater than 100 µM. It also gave a TGI (IGROV1 ovarian) greater than 100 µM, a TGI (SK-MEL-28 melanoma) greater than 100 µM and a TGI (HT29 colon) greater than 100 µM.

For `CCC1c2[nH]c3ccccc3c2C[C@H]2C(=O)NC(Cc3c[nH]c4ccccc34)C(=O)N12` (stereo partly drawn), the TGI (MCF7 breast) was greater than 100 µM, the TGI (EKVX NSCLC) was 88.3 µM and the TGI (SK-MEL-2 melanoma) was 38.6 µM. It also gave a TGI (SF-268 CNS) greater than 100 µM, a TGI (OVCAR-8 ovarian) of 94 µM and a TGI (HCT-15 colon) of 78.2 µM. It also gave a TGI (K-562 leukemia) greater than 100 µM, a TGI (SF-295 CNS) of 35 µM and a TGI (U251 CNS) of 34.7 µM. For the same compound, the TGI (HOP-62 NSCLC) was 50.6 µM, the TGI (HOP-92 NSCLC) was 74 µM and the TGI (RXF 393 renal) was 37.1 µM. It also gave a TGI (SN12C renal) of 52.6 µM, a TGI (MOLT-4 leukemia) of 47.9 µM and a TGI (UO-31 renal) greater than 100 µM. For the same compound, the TGI (T-47D breast) was greater than 100 µM, the TGI (NCI/ADR-RES ovarian) was 76.6 µM and the TGI (M14 melanoma) was 49.2 µM. It also gave a TGI (NCI-H226 lung) of 82.1 µM, a TGI (LOX IMVI melanoma) of 49.3 µM and a TGI (KM12 colon) of 43.4 µM. It also gave a TGI (TK-10 renal) of 80.4 µM, a TGI (UACC-62 melanoma) of 32.6 µM and a TGI (SK-MEL-5 melanoma) of 31.8 µM. The TGI (HCT-116 colon) was 35.1 µM, the TGI (PC-3 prostate) was 53.1 µM and the TGI (HL-60(TB) leukemia) was 46.4 µM. It also gave a TGI (MDA-N) of 55.2 µM, a TGI (SR leukemia) of 49.6 µM and a TGI (MALME-3M melanoma) of 36.3 µM. For the same compound, the TGI (OVCAR-5 ovarian) was 58.5 µM, the TGI (786-0 renal) was 55.1 µM and the TGI (SK-OV-3 ovarian) was greater than 100 µM. The TGI (RPMI-8226 leukemia) was 55.8 µM, the TGI (UACC-257 melanoma) was 42.2 µM and the TGI (A549 NSCLC) was greater than 100 µM. For the same compound, the TGI (MDA-MB-435) was 41.1 µM, the TGI (OVCAR-4 ovarian) was greater than 100 µM and the TGI (SW-620 colon) was greater than 100 µM. It also gave a TGI (COLO 205 colon) of 36.2 µM, a TGI (OVCAR-3 ovarian) of 37.8 µM and a TGI (MDA-MB-231 breast) of 38.1 µM. It also gave a TGI (DU-145 prostate) greater than 100 µM, a TGI (CAKI-1 renal) of 67.3 µM and a TGI (SNB-19 CNS) greater than 100 µM. For the same compound, the TGI (BT-549 breast) was 52.9 µM, the TGI (NCI-H522 lung) was 55 µM and the TGI (HS 578T breast) was 49.4 µM. For the same compound, the TGI (NCI-H23 lung) was 63.2 µM, the TGI (A498 renal) was greater than 100 µM and the TGI (ACHN renal) was greater than 100 µM. For the same compound, the TGI (IGROV1 ovarian) was 65.2 µM, the TGI (SK-MEL-28 melanoma) was greater than 100 µM and the TGI (HT29 colon) was 62.2 µM.

`NC1(P(=O)(O)O)CCCCC1` was tested, and the TGI (MCF7 breast) was greater than 100 µM, the TGI (EKVX NSCLC) was greater than 100 µM and the TGI (SK-MEL-2 melanoma) was greater than 100 µM. The TGI (SF-268 CNS) was greater than 100 µM, the TGI (OVCAR-8 ovarian) was greater than 100 µM and the TGI (HCT-15 colon) was greater than 100 µM. For the same compound, the TGI (K-562 leukemia) was greater than 100 µM, the TGI (SF-295 CNS) was greater than 100 µM and the TGI (U251 CNS) was greater than 100 µM. The TGI (HOP-62 NSCLC) was greater than 100 µM, the TGI (HOP-92 NSCLC) was greater than 100 µM and the TGI (RXF 393 renal) was greater than 100 µM. For the same compound, the TGI (SN12C renal) was greater than 100 µM, the TGI (MOLT-4 leukemia) was greater than 100 µM and the TGI (SNB-75 CNS) was greater than 100 µM. It also gave a TGI (T-47D breast) greater than 100 µM, a TGI (NCI/ADR-RES ovarian) greater than 100 µM and a TGI (M14 melanoma) greater than 100 µM. The TGI (NCI-H226 lung) was greater than 100 µM, the TGI (LOX IMVI melanoma) was greater than 100 µM and the TGI (KM12 colon) was greater than 100 µM. For the same compound, the TGI (TK-10 renal) was greater than 100 µM, the TGI (CCRF-CEM leukemia) was greater than 100 µM and the TGI (UACC-62 melanoma) was greater than 100 µM. It also gave a TGI (SF-539 CNS) greater than 100 µM, a TGI (SK-MEL-5 melanoma) greater than 100 µM and a TGI (HCT-116 colon) greater than 100 µM. It also gave a TGI (PC-3 prostate) greater than 100 µM, a TGI (HL-60(TB) leukemia) greater than 100 µM and a TGI (MDA-N) greater than 100 µM. It also gave a TGI (SR leukemia) greater than 100 µM, a TGI (MALME-3M melanoma) greater than 100 µM and a TGI (OVCAR-5 ovarian) greater than 100 µM. The TGI (786-0 renal) was greater than 100 µM, the TGI (SK-OV-3 ovarian) was greater than 100 µM and the TGI (RPMI-8226 leukemia) was greater than 100 µM. The TGI (UACC-257 melanoma) was greater than 100 µM, the TGI (A549 NSCLC) was greater than 100 µM and the TGI (MDA-MB-435) was greater than 100 µM. For the same compound, the TGI (OVCAR-4 ovarian) was greater than 100 µM, the TGI (SW-620 colon) was greater than 100 µM and the TGI (COLO 205 colon) was greater than 100 µM. The TGI (OVCAR-3 ovarian) was greater than 100 µM, the TGI (NCI-H460 lung) was greater than 100 µM and the TGI (MDA-MB-231 breast) was greater than 100 µM. For the same compound, the TGI (DU-145 prostate) was greater than 100 µM, the TGI (CAKI-1 renal) was greater than 100 µM and the TGI (SNB-19 CNS) was greater than 100 µM. For the same compound, the TGI (BT-549 breast) was greater than 100 µM, the TGI (NCI-H522 lung) was greater than 100 µM and the TGI (HS 578T breast) was greater than 100 µM. It also gave a TGI (NCI-H23 lung) greater than 100 µM, a TGI (A498 renal) greater than 100 µM and a TGI (ACHN renal) greater than 100 µM. For the same compound, the TGI (IGROV1 ovarian) was greater than 100 µM, the TGI (SK-MEL-28 melanoma) was greater than 100 µM and the TGI (HT29 colon) was greater than 100 µM.
